Consider one compound from ChEMBL document CHEMBL2176918, “Design and optimization of pyrazinecarboxamide-based inhibitors of diacylglycerol acyltransferase 1 (DGAT1) leading to a clinical candidate dimethylpyrazinecarboxamide phenylcyclohexylacetic acid (AZD7687)” (J Med Chem, 2012).

One series concerns the target T1, O-acyltransferase (Canis lupus familiaris, UniProt A0A8I3N393).
T1 sequence (A0A8I3N393 whole entry): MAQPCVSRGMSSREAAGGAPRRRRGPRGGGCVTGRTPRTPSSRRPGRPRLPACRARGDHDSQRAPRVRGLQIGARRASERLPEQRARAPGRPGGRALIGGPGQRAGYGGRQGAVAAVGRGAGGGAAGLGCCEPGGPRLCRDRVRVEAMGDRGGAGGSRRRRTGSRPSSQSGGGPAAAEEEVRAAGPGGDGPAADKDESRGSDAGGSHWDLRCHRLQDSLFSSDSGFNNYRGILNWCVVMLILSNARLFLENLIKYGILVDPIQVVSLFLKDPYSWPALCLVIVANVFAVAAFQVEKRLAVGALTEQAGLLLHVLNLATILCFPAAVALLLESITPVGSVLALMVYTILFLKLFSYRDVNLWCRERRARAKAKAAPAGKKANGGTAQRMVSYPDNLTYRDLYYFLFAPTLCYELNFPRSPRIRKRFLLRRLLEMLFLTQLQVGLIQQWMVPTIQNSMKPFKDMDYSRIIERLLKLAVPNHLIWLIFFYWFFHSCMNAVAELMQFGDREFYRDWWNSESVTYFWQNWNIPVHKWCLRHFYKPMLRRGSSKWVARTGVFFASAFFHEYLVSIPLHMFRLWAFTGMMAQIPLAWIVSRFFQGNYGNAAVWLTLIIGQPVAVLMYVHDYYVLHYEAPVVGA
Kind of series: Inhibition of DGAT1 in dog liver microsomes. Set-up: species or system Microsome.

The target of series [1] is cAMP and cAMP-inhibited cGMP 3',5'-cyclic phosphodiesterase 10A (Homo sapiens, UniProt Q9Y233). Briefly: Inhibition of PDE10A1 […].
cAMP and cAMP-inhibited cGMP 3',5'-cyclic phosphodiesterase 10A, sequence (Q9Y233 whole entry): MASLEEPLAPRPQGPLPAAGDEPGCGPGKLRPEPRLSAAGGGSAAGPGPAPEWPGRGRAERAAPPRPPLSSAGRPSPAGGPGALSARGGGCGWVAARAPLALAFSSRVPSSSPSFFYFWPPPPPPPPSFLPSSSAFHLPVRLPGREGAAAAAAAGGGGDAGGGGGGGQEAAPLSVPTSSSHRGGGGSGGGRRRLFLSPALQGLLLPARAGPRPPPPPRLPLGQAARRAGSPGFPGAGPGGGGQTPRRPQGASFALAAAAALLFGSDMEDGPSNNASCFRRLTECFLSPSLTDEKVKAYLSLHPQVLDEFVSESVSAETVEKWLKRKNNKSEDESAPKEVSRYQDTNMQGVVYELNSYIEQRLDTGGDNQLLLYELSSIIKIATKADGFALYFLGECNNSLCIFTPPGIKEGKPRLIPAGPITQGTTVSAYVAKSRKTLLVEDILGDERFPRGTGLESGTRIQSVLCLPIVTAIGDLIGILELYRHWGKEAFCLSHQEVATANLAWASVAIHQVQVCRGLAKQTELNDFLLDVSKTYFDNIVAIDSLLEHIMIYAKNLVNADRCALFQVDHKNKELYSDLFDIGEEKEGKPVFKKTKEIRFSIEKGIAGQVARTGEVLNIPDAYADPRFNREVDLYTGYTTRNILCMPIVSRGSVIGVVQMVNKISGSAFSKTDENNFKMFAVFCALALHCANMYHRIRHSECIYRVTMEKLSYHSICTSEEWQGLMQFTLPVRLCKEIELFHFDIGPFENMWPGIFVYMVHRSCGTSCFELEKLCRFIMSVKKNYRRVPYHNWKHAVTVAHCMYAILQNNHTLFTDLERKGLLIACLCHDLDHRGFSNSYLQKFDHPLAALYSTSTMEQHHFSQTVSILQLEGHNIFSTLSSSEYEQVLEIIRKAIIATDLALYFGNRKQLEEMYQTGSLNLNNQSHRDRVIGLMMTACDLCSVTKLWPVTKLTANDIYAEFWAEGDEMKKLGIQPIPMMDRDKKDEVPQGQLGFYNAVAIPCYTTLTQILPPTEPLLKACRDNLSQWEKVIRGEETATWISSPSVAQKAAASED
Series [2] addresses T2, Muscarinic acetylcholine receptor M2 (Homo sapiens, UniProt P08172).
T2 sequence (P08172 whole entry): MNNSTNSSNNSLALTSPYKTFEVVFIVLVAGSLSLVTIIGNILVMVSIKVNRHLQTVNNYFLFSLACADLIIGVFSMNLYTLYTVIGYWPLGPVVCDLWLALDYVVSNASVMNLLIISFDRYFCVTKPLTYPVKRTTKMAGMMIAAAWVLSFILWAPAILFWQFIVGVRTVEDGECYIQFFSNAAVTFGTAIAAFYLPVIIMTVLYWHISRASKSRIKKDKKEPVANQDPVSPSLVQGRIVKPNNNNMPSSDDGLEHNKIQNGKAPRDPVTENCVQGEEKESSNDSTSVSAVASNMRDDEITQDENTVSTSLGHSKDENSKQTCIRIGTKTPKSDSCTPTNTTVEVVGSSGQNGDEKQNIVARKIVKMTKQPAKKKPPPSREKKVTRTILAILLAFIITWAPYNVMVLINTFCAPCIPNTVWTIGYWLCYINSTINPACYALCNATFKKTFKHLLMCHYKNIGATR
Briefly: Inhibition of muscarinic M2 receptor.

A short description of series [3]: Octanol/water partition coefficient, log D of the compound at pH 7.4. Type of series: physicochemical.
A short description of series [4]: Volume of distribution in C57BL/6 mouse at 8.16 uM/kg, po or 5.4 uM/kg, iv. To be noted: in vivo. Type of series: ADME, organism-based.
Series [5] deals with T3, Diacylglycerol O-acyltransferase 1 (Homo sapiens, UniProt O75907).
T3 sequence (O75907 whole entry): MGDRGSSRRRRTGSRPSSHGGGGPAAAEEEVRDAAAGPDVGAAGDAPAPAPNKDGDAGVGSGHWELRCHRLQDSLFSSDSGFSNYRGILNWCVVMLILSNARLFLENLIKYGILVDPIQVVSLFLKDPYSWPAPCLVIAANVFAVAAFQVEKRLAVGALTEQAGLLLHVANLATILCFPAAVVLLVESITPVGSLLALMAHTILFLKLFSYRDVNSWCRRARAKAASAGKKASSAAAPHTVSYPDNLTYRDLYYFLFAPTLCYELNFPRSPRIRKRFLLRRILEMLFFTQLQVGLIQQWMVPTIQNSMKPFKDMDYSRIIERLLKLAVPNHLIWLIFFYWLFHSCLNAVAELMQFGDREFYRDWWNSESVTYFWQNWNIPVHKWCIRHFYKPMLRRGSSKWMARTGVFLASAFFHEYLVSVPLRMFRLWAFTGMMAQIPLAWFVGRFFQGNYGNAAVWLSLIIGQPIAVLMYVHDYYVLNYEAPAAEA
Kind of series: Inhibition of DGAT1 in human HuTu80 cells. It counts as cell-based.

Series [6] in a line: Fraction unbound in human plasma at 37 degC by LC-UV/MS method based equilibrium dialysis method. For orientation: In equilibrium dialysis free small molecules cross a membrane that holds back macromolecules.

For the compound `Cc1nc(C)c(-c2ccc(C3CCC(CC(=O)O)CC3)cc2)nc1C(N)=O` (configuration not stated) [AZD-7687], the IC50 (in general, the concentration at which inhibition is half-maximal) on O-acyltransferase is 0.06 µM; in series [1] it was 5.5 µM; in series [2], 80.5 µM; in series [5], 0.01 µM. In addition, in series [3], the logD (commonly lipophilicity at a set pH, counting ionised and neutral species) stood at 0.9. In series [4], this compound returned a Vd of 0.9 L/kg. The fraction unbound (usually the share of the substance not bound to proteins or other matrix) in series [6] stood at 0.047.
